Test results taken from PMC5884524, “A high content, high throughput cellular thermal stability assay for measuring drug-target engagement in living cells” (PLoS ONE, 2018).
Where “and” joins values, the source holds several entries; their conditions need not be identical. Identical values can stand only once. Like-named read-outs stand apart in the source and are kept apart here. Peptide text beside a SMILES is read from it. * marks the point of attachment. Cbz = O=C(OCc1ccccc1)*

Columns and labels:
[1] = target: T1, Chk1 (Homo sapiens, UniProt O14757); test: HCIF-CETSA (CETSA by immunofluorescence), low well volume heating, HT29 cells; format: cell-based; design: Thermal response profile of Chk1 in HT29 cells detected by immunofluorescent imaging with the EP691Y antibody; endogenous in cells; host or cells: HT29; settings: for EC50: 25 μL media
T1 sequence (O14757 1-476): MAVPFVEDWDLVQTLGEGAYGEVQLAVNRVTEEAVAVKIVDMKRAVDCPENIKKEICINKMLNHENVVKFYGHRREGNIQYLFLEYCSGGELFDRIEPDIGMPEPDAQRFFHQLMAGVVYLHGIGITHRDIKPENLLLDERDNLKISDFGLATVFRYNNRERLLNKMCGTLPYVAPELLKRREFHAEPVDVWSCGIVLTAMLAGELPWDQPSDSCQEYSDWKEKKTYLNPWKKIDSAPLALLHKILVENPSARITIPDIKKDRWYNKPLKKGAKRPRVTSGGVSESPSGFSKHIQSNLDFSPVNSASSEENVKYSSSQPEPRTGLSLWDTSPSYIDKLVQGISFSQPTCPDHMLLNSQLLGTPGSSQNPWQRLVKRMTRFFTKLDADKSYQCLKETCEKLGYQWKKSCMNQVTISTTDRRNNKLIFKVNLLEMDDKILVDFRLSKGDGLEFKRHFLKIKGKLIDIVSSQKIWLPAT
Protocol: Compounds were serially diluted in DMSO to 200-times the final assay concentration then diluted 1:200 in media (without FCS). The cell media was removed and replaced with 25 μL of compound in media and incubated at 37°C, 5% CO2 for 10 minutes. The plate was sealed with an aluminum plate seal and heated by floating in a pre-heated water bath (Grant Instruments W14) for 3 minutes. 75 μL of room temperature media (without FCS or compound) was added and the plate incubated at room temperature for 5 minutes. […] Plates were imaged on an Operetta high content imager using a 20x objective and analyzed using Harmony software.

[2] = target: T1, Chk1; test: Chk1 thermal stability by immunofluorescence, PBS immersion heating, HT29 cells; format: cell-based; design: Thermal response profile of Chk1 in HT29 cells detected by immunofluorescent imaging with the EP691Y antibody; endogenous in cells; host or cells: HT29; settings: HT29, 1–10 μM for 30 minutes, heated to 46, 49, 52 or 55°C
Source text: (§1) Plates were heated as follows: (i) sealed with adhesive aluminum PCR plate foil and then floated or submerged in a water bath (Grant Instruments W14) containing water pre-heated to the desired temperature or (ii) 1 L of DPBS containing magnesium and calcium (D1283, Sigma) was placed in a clean water bath (SUB6, Grant Instruments) and heated to the required temperature. The media was removed from the wells of the CellCarrier plate and the plate submersed in the DPBS so that all wells were full of DPBS and the plate was not touching the bottom of the water bath. The plate was incubated in the DPBS for 3 minutes, removed, the hot DPBS removed and replaced with 100 μL room temperature DPBS and then incubated at room temperature for 5 minutes. In some experiments, the DPBS was substituted for live cell imaging solution (LCIS, 20 mM Hepes, 140 mM NaCl, 2.5 mM KCl, 1.8 mM CaCl2, 1.0 mM MgCl2, pH 7.4).
(§2) Single cell immunofluorescent imaging was conducted as previously described in CellCarrier 96WP or CellCarrier Ultra 96WP (6005550 or 6055300, Perkin Elmer) and imaged on an Operetta high content imager (Perkin Elmer) using a 10, 20 or 40x objective then analyzed using Harmony software (Perkin Elmer).

[3] = target: T1, Chk1; design: endogenous in cells; settings: U2OS cells; read-out: CETSA classic EC50; cited from earlier work
[4] = target: T1, Chk1; design: Thermal response profile of Chk1 in HT29 cells detected by immunofluorescent imaging with the EP691Y antibody; endogenous in cells; host or cells: HT29; settings: HT29 cells; read-out: CETSA classic EC50; cited from earlier work
[5] = target: T1, Chk1; test: Chk1 thermal stability by immunofluorescence, sealed plate submerged in water bath, HT29 cells; format: cell-based; design: Thermal response profile of Chk1 in HT29 cells detected by immunofluorescent imaging with the EP691Y antibody; endogenous in cells; host or cells: HT29; settings: HT29, 10 μM for 30 minutes, HU treated or untreated, sealed plate 55°C
Source text: as §1, §2

[6] = target: T1, Chk1; test: Chk1 autophosphorylation (pS296) by immunoblotting and densitometry, HT29 cells; format: cell-based; design: Thermal response profile of Chk1 in HT29 cells detected by immunofluorescent imaging with the EP691Y antibody; endogenous in cells; host or cells: HT29; settings: for IC50: HT29, 10 min
Protocol: (§3) Immunoblotting was conducted as previously described.

[7] = target: T1, Chk1; test: Chk1 autophosphorylation (pS296) by immunoblotting and densitometry, U2OS cells; format: cell-based; settings: 10 min, identical cellular conditions to HCIF-CETSA (Fig 6E)
Protocol: as §3

[8] = target: T1, Chk1; test: HCIF-CETSA (CETSA by immunofluorescence), low well volume heating, U2OS cells; format: cell-based; settings: 10 min
Protocol: 10 000 cells were plated per well of a CellCarrier Ultra 96WP (6055300, Perkin Elmer) and allowed to adhere overnight. Compounds were serially diluted in DMSO to 200-times the final assay concentration then diluted 1:200 in media (without FCS). The cell media was removed and replaced with 25 μL of compound in media and incubated at 37°C, 5% CO2 for 10 minutes. The plate was sealed with an aluminum plate seal and heated by floating in a pre-heated water bath (Grant Instruments W14) for 3 minutes. 75 μL of room temperature media (without FCS or compound) was added and the plate incubated at room temperature for 5 minutes. Cells were fixed by the addition of 100 μL paraformaldehyde (7.4% in PBS) at room temperature for 15 minutes. Cells were washed 3 times with PBS and Chk1 detected with anti-Chk1 rabbit EP691Y monoclonal antibody (Ab40866, Abcam) and an AlexaFluor488 anti-rabbit secondary antibody (A-11034, Thermo Fisher Scientific). Plates were imaged on an Operetta high content imager using a 20x objective and analyzed using Harmony software.

[9] = target: T1, Chk1; test: HCIF-CETSA (CETSA by immunofluorescence), low well volume heating, HT29 cells; format: cell-based; design: Thermal response profile of Chk1 in HT29 cells detected by immunofluorescent imaging with the EP691Y antibody; endogenous in cells; host or cells: HT29; settings: HT29, 10 minute incubation, 50 μL media, 51°C (Fig 6D)
[10] = system: HT29 cells; test: S-phase arrest by Hoechst 33342 imaging, HT29 cells; format: cell-based, human; settings: HT29, 2.5 mM for 18 hours, n = 6 wells ± SD
Protocol: as §2

[11] = target: T1, Chk1; test: Nuclear pChk1 (S317, S345) by single cell immunofluorescence, HT29 cells; format: cell-based; design: Thermal response profile of Chk1 in HT29 cells detected by immunofluorescent imaging with the EP691Y antibody; endogenous in cells; host or cells: HT29; settings: HT29, 2.5 mM for 18 hours
Protocol: as §2

[12] = HT29, 0–40 μM inhibitor, 10 min, 49°C (Fig 8A), read-out: EC50, decrease in nuclear Chk1 fluorescence following heating

SMILES: CN(C)CC(C)(C)COc1ccc2[nH]c(-c3cc(NC(=O)c4cnn(Cc5ccccc5)c4)c[nH]c3=O)cc2c1 [V158411]
- EC50 [1, 12]: 2 ± 0.9 µM
- EC50 ([1]; HT29, 10 min, 49°C (Fig 6B), read-out: HCIF-CETSA EC50, mean of three independent experiments): 1.7 ± 0.4 µM
- EC50 ([1]; HT29, 10 min, 49°C (Fig 6B), read-out: HCIF-CETSA EC50, single values of three independent experiments): 1.9 µM and 1.2 µM
- EC50 ([1]; HT29, 10 min pre-incubation, heated to 46°C (Fig 6A), read-out: EC50, reduction in Chk1 nuclear immunofluorescence): 1.9 µM
- EC50 ([1]; HT29, 10 min pre-incubation, heated to 49°C (Fig 6A), read-out: EC50, reduction in Chk1 nuclear immunofluorescence): 1.9 µM
- EC50 ([1]; HT29, 10 min pre-incubation, heated to 52°C (Fig 6A), read-out: EC50, reduction in Chk1 nuclear immunofluorescence): 2.5 µM
- Effect on mean nuclear Chk1 intensity after PBS immersion heating [2]: did not alter the mean nuclear Chk1 intensity
- EC50 [3]: 2.3 ± 1.2 µM
- EC50 [4]: 3.3 ± 3.4 µM
- Effect on thermostabilization of total Chk1 or phosphorylated Chk1 [5]: no effect
- Effect on Chk1 autophosphorylation ([6]; HT29, 0–10 μM for 30 minutes, HU treated and untreated cells (Fig 4B)): inhibited Chk1 autophosphorylation
- IC50 ([6]; identical cellular conditions to HCIF-CETSA (Fig 6E), read-out: IC50, Chk1 autophosphorylation (pS296)): ~0.16 µM
- IC50 [7]: ~0.11 µM
- EC50 ([8]; U2OS, 25 μL media, 49°C (Fig 6C)): 1.4 ± 0.3 µM
- Effect on mean nuclear Chk1 fluorescence in unheated cells ([8]; unheated U2OS, 0–20 μM): increased the mean nuclear Chk1 fluorescence
- EC50 [9]: 1 µM

SMILES: NC(=O)NO [HU, Hydroxyurea]
- Cells exhibiting evidence of S-phase arrest [10]: 71.4 ± 0.7%
- Increase in nuclear Chk1 pS317 [11]: 1.9 fold
- Increase in nuclear Chk1 pS345 [11]: 1.6 fold

SMILES: CC(C)C[C@@H](C=O)NC(=O)[C@H](CC(C)C)NC(=O)[C@H](CC(C)C)NC(=O)OCc1ccccc1 [MG-132, reference compound] (Cbz-Leu-Leu-Leu-aldehyde)
- Effect on temperature induced decrease in Chk1 nuclear fluorescence ([1]; HT29, 5 μM for 2 hours, then DMSO or 3 μM V158411, 49 or 52°C): did not block

SMILES: N#Cc1cc2c(cn1)[nH]c1ncc(-c3ccc(CN4CCCCC4)cc3)cc12 [GNE-900, reference compound]
- EC50 [1, 12]: 1.3 ± 0.3 µM
- IC50 ([6]; same dilution series and conditions as HCIF-CETSA (Fig 8B), read-out: IC50, S296 phosphorylation): 0.5 µM
